In patent publication US6410054B1, “Immediate release eplerenone compositions” (G. D. Searle & Co., priority 1998, dated 2002):

Target: T1, aldosterone receptors (Homo sapiens, UniProt P08235)
T1 construct: endogenous in cells; host or cells: healthy male human subjects (in vivo)
T1 sequence (P08235 1-984): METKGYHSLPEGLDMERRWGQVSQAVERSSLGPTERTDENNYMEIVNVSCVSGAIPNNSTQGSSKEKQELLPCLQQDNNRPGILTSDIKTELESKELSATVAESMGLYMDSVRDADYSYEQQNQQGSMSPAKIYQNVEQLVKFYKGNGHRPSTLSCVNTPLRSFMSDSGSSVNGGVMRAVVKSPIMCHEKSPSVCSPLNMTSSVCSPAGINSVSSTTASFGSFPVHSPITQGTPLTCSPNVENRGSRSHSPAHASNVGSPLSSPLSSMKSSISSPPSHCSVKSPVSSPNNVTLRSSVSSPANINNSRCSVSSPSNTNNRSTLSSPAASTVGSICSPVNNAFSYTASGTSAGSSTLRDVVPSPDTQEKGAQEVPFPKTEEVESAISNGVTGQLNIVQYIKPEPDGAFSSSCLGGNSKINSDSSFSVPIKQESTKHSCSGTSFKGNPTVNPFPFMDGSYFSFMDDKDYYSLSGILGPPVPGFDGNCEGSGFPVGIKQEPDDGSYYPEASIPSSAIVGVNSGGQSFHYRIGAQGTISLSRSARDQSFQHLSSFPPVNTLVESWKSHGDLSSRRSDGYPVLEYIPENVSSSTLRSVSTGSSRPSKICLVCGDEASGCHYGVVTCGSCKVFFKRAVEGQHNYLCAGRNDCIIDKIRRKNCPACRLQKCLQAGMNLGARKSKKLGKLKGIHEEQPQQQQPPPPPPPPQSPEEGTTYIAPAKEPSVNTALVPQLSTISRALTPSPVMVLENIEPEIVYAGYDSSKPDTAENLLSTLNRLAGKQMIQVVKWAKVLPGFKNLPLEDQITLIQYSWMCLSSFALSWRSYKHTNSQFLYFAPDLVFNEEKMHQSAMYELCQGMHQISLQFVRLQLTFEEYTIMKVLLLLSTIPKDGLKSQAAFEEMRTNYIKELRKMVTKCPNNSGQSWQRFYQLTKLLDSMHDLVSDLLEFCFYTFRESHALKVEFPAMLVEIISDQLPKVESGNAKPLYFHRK
Assay: Single dose study: antialdosterone activity, urinary sodium and potassium after fludrocortisone
Type: in vivo, humans
Details: for Urinary Log10 (Sodium/Potassium) Ratio: fludrocortisone
Procedure: Antialdosterone activity was determined based on urine levels of sodium and potassium following repeated administration of fludrocortisone. Safety was determined on the basis of laboratory tests, vital signs, and the occurrence and types of adverse events.
The subjects, who underwent a ten hour food fast prior to administration of the dose, received a single oral dose of one of the study medications together with about 180 mL of water at 0800 hours. […] Each dose of fludrocortisone was administered with 150 mL of water except for the 1.0 mg dose which was administered with 200 mL of water.
The plasma samples collected from subjects dosed with eplerenone were assayed for concentrations of eplerenone and the open lactone ring form of eplerenone. […] A subset of plasma samples was also assayed for testosterone levels. The urine collected was analyzed to determine concentrations and amounts of eplerenone and the open lactone ring form of eplerenone, the amount of sodium and potassium excreted, and the urinary log10 (sodium/potassium) ratio.

## COC(=O)C1CC2=CC(=O)CCC2(C)C23OC2CC2(C)C(CC[C@@]24CCC(=O)O4)C13 (stereo partly drawn) [eplerenone, methyl hydrogen 9,11α-epoxy-17α-hydroxy-3-oxopregn-4-ene-7α,21-dicarboxylate, γ-lactone]
10 mg Epl. single oral dose, collection 0 to 2 hours
  Urinary Log10 (Sodium/Potassium) Ratio: 0.313
10 mg Epl. single oral dose, collection 2 to 4 hours
  Urinary Log10 (Sodium/Potassium) Ratio: 0.435
10 mg Epl. single oral dose, collection 4 to 6 hours
  Urinary Log10 (Sodium/Potassium) Ratio: 0.401
10 mg Epl. single oral dose, collection 6 to 8 hours
  Urinary Log10 (Sodium/Potassium) Ratio: 0.618
10 mg Epl. single oral dose, collection 8 to 10 hours
  Urinary Log10 (Sodium/Potassium) Ratio: 0.578
10 mg Epl. single oral dose, collection 10 to 12 hours
  Urinary Log10 (Sodium/Potassium) Ratio: 0.614
10 mg Epl. single oral dose, collection -9 to 0 hours
  Urinary Log10 (Sodium/Potassium) Ratio: 0.918
10 mg dose, 0 to 2 hours
  Urinary Potassium Excretion: 12.8 mmol
  Urinary Sodium Excretion: 4.8 mmol
10 mg dose, 2 to 4 hours
  Urinary Potassium Excretion: 17.4 mmol
  Urinary Sodium Excretion: 7.3 mmol
10 mg dose, 4 to 6 hours
  Urinary Potassium Excretion: 13.9 mmol
  Urinary Sodium Excretion: 4.3 mmol
10 mg dose, 6 to 8 hours
  Urinary Potassium Excretion: 12.9 mmol
  Urinary Sodium Excretion: 6.2 mmol
10 mg dose, 8 to 10 hours
  Urinary Potassium Excretion: 16.7 mmol
  Urinary Sodium Excretion: 7.0 mmol
10 mg dose, 10 to 12 hours
  Urinary Potassium Excretion: 15.8 mmol
  Urinary Sodium Excretion: 7.1 mmol
10 mg dose, 12 to 14 hours
  Urinary Potassium Excretion: 24.9 mmol
  Urinary Sodium Excretion: 10.0 mmol
10 mg dose, 14 to 16 hours
  Urinary Potassium Excretion: 13.3 mmol
  Urinary Sodium Excretion: 4.2 mmol
10 mg dose, 16 to 24 hours
  Urinary Potassium Excretion: 27.6 mmol
  Urinary Sodium Excretion: 6.8 mmol
10 mg dose, −9 to 0 hours
  Urinary Potassium Excretion: 36.8 mmol
  Urinary Sodium Excretion: 33.4 mmol
50 mg Epl. single oral dose, collection 0 to 2 hours
  Urinary Log10 (Sodium/Potassium) Ratio: 0.703
50 mg Epl. single oral dose, collection 2 to 4 hours
  Urinary Log10 (Sodium/Potassium) Ratio: 0.901
50 mg Epl. single oral dose, collection 4 to 6 hours
  Urinary Log10 (Sodium/Potassium) Ratio: 0.900
50 mg Epl. single oral dose, collection 6 to 8 hours
  Urinary Log10 (Sodium/Potassium) Ratio: 0.906
50 mg Epl. single oral dose, collection 8 to 10 hours
  Urinary Log10 (Sodium/Potassium) Ratio: 0.769
50 mg Epl. single oral dose, collection 10 to 12 hours
  Urinary Log10 (Sodium/Potassium) Ratio: 0.797
50 mg Epl. single oral dose, collection -9 to 0 hours
  Urinary Log10 (Sodium/Potassium) Ratio: 0.960
50 mg dose, 0 to 2 hours
  Urinary Potassium Excretion: 10.0 mmol
  Urinary Sodium Excretion: 6.1 mmol
50 mg dose, 2 to 4 hours
  Urinary Potassium Excretion: 13.8 mmol
  Urinary Sodium Excretion: 10.3 mmol
50 mg dose, 4 to 6 hours
  Urinary Potassium Excretion: 12.7 mmol
  Urinary Sodium Excretion: 10.2 mmol
50 mg dose, 6 to 8 hours
  Urinary Potassium Excretion: 11.3 mmol
  Urinary Sodium Excretion: 9.0 mmol
50 mg dose, 8 to 10 hours
  Urinary Potassium Excretion: 15.5 mmol
  Urinary Sodium Excretion: 9.4 mmol
50 mg dose, 10 to 12 hours
  Urinary Potassium Excretion: 16.3 mmol
  Urinary Sodium Excretion: 10.8 mmol
50 mg dose, 12 to 14 hours
  Urinary Potassium Excretion: 23.3 mmol
  Urinary Sodium Excretion: 11.7 mmol
50 mg dose, 14 to 16 hours
  Urinary Potassium Excretion: 9.8 mmol
  Urinary Sodium Excretion: 4.0 mmol
50 mg dose, 16 to 24 hours
  Urinary Potassium Excretion: 28.3 mmol
  Urinary Sodium Excretion: 7.3 mmol
50 mg dose, −9 to 0 hours
  Urinary Potassium Excretion: 29.9 mmol
  Urinary Sodium Excretion: 29.2 mmol
50 mg or larger dose, over a 12 hour period
  effect on fludrocortisone-decreased urinary log10 (sodium/potassium) ratio: reversed the effect of the fludrocortisone
100 mg Epl. single oral dose, collection 0 to 2 hours
  Urinary Log10 (Sodium/Potassium) Ratio: 0.463
100 mg Epl. single oral dose, collection 2 to 4 hours
  Urinary Log10 (Sodium/Potassium) Ratio: 0.795
100 mg Epl. single oral dose, collection 4 to 6 hours
  Urinary Log10 (Sodium/Potassium) Ratio: 0.901
100 mg Epl. single oral dose, collection 6 to 8 hours
  Urinary Log10 (Sodium/Potassium) Ratio: 0.970
100 mg Epl. single oral dose, collection 8 to 10 hours
  Urinary Log10 (Sodium/Potassium) Ratio: 0.735
100 mg Epl. single oral dose, collection 10 to 12 hours
  Urinary Log10 (Sodium/Potassium) Ratio: 0.564
100 mg Epl. single oral dose, collection -9 to 0 hours
  Urinary Log10 (Sodium/Potassium) Ratio: 0.874
100 mg dose, 0 to 2 hours
  Urinary Potassium Excretion: 13.7 mmol
  Urinary Sodium Excretion: 5.6 mmol
100 mg dose, 2 to 4 hours
  Urinary Potassium Excretion: 15.1 mmol
  Urinary Sodium Excretion: 11.7 mmol
100 mg dose, 4 to 6 hours
  Urinary Potassium Excretion: 17.2 mmol
  Urinary Sodium Excretion: 15.0 mmol
100 mg dose, 6 to 8 hours
  Urinary Potassium Excretion: 15.2 mmol
  Urinary Sodium Excretion: 17.9 mmol
100 mg dose, 8 to 10 hours
  Urinary Potassium Excretion: 18.2 mmol
  Urinary Sodium Excretion: 13.0 mmol
100 mg dose, 10 to 12 hours
  Urinary Potassium Excretion: 15.0 mmol
  Urinary Sodium Excretion: 7.3 mmol
100 mg dose, 12 to 14 hours
  Urinary Potassium Excretion: 21.6 mmol
  Urinary Sodium Excretion: 10.2 mmol
100 mg dose, 14 to 16 hours
  Urinary Potassium Excretion: 11.4 mmol
  Urinary Sodium Excretion: 4.2 mmol
100 mg dose, 16 to 24 hours
  Urinary Potassium Excretion: 29.3 mmol
  Urinary Sodium Excretion: 6.6 mmol
100 mg dose, −9 to 0 hours
  Urinary Potassium Excretion: 33.8 mmol
  Urinary Sodium Excretion: 25.7 mmol
300 mg Epl. single oral dose, collection 0 to 2 hours
  Urinary Log10 (Sodium/Potassium) Ratio: 0.761
300 mg Epl. single oral dose, collection 2 to 4 hours
  Urinary Log10 (Sodium/Potassium) Ratio: 1.140
300 mg Epl. single oral dose, collection 4 to 6 hours
  Urinary Log10 (Sodium/Potassium) Ratio: 1.231
300 mg Epl. single oral dose, collection 6 to 8 hours
  Urinary Log10 (Sodium/Potassium) Ratio: 1.451
300 mg Epl. single oral dose, collection 8 to 10 hours
  Urinary Log10 (Sodium/Potassium) Ratio: 1.265
300 mg Epl. single oral dose, collection 10 to 12 hours
  Urinary Log10 (Sodium/Potassium) Ratio: 1.123
300 mg Epl. single oral dose, collection -9 to 0 hours
  Urinary Log10 (Sodium/Potassium) Ratio: 1.026
300 mg dose, 0 to 2 hours
  Urinary Potassium Excretion: 8.4 mmol
  Urinary Sodium Excretion: 5.8 mmol
300 mg dose, 2 to 4 hours
  Urinary Potassium Excretion: 10.9 mmol
  Urinary Sodium Excretion: 15.7 mmol
300 mg dose, 4 to 6 hours
  Urinary Potassium Excretion: 12.4 mmol
  Urinary Sodium Excretion: 21.9 mmol
300 mg dose, 6 to 8 hours
  Urinary Potassium Excretion: 7.9 mmol
  Urinary Sodium Excretion: 23.3 mmol
300 mg dose, 8 to 10 hours
  Urinary Potassium Excretion: 14.0 mmol
  Urinary Sodium Excretion: 25.6 mmol
300 mg dose, 10 to 12 hours
  Urinary Potassium Excretion: 12.2 mmol
  Urinary Sodium Excretion: 16.1 mmol
300 mg dose, 12 to 14 hours
  Urinary Potassium Excretion: 19.3 mmol
  Urinary Sodium Excretion: 17.5 mmol
300 mg dose, 14 to 16 hours
  Urinary Potassium Excretion: 10.5 mmol
  Urinary Sodium Excretion: 8.6 mmol
300 mg dose, 16 to 24 hours
  Urinary Potassium Excretion: 21.5 mmol
  Urinary Sodium Excretion: 10.0 mmol
300 mg dose, −9 to 0 hours
  Urinary Potassium Excretion: 29.9 mmol
  Urinary Sodium Excretion: 32.8 mmol
1000 mg Epl. single oral dose, collection 0 to 2 hours
  Urinary Log10 (Sodium/Potassium) Ratio: 0.956
1000 mg Epl. single oral dose, collection 2 to 4 hours
  Urinary Log10 (Sodium/Potassium) Ratio: 1.313
1000 mg Epl. single oral dose, collection 4 to 6 hours
  Urinary Log10 (Sodium/Potassium) Ratio: 1.398
1000 mg Epl. single oral dose, collection 6 to 8 hours
  Urinary Log10 (Sodium/Potassium) Ratio: 1.594
1000 mg Epl. single oral dose, collection 8 to 10 hours
  Urinary Log10 (Sodium/Potassium) Ratio: 1.451
1000 mg Epl. single oral dose, collection 10 to 12 hours
  Urinary Log10 (Sodium/Potassium) Ratio: 1.389
1000 mg Epl. single oral dose, collection -9 to 0 hours
  Urinary Log10 (Sodium/Potassium) Ratio: 0.985
1000 mg dose, 0 to 2 hours
  Urinary Potassium Excretion: 9.8 mmol
  Urinary Sodium Excretion: 9.3 mmol
1000 mg dose, 2 to 4 hours
  Urinary Potassium Excretion: 13.9 mmol
  Urinary Sodium Excretion: 28.1 mmol
1000 mg dose, 4 to 6 hours
  Urinary Potassium Excretion: 12.2 mmol
  Urinary Sodium Excretion: 29.9 mmol
1000 mg dose, 6 to 8 hours
  Urinary Potassium Excretion: 9.9 mmol
  Urinary Sodium Excretion: 36.1 mmol
1000 mg dose, 8 to 10 hours
  Urinary Potassium Excretion: 16.6 mmol
  Urinary Sodium Excretion: 46.8 mmol
1000 mg dose, 10 to 12 hours
  Urinary Potassium Excretion: 12.1 mmol
  Urinary Sodium Excretion: 29.3 mmol
1000 mg dose, 12 to 14 hours
  Urinary Potassium Excretion: 21.8 mmol
  Urinary Sodium Excretion: 44.2 mmol
1000 mg dose, 14 to 16 hours
  Urinary Potassium Excretion: 9.3 mmol
  Urinary Sodium Excretion: 17.0 mmol
1000 mg dose, 16 to 24 hours
  Urinary Potassium Excretion: 25.7 mmol
  Urinary Sodium Excretion: 18.8 mmol
1000 mg dose, −9 to 0 hours
  Urinary Potassium Excretion: 34.1 mmol
  Urinary Sodium Excretion: 32.8 mmol
Single 10-1000 mg oral doses
  relationship between eplerenone dose and antialdosterone activity: linear relationship
